# According to patent US20260138981A1, “DIHYDROFOLATE REDUCTASE INHIBITORS FOR ANTI-BIOTIC RESISTANT INFECTIONS” (THE TRUSTEES OF PRINCETON UNIVERSITY, priority 2022, published 2026):
# Legend:
# [1] = tested on: P. aeruginosa PA14; experiment: Colony forming units (CFU) counting after 4-hour treatment; format: cell-based; details: rich media, PA14, 2×MIC, CFU/mL
# Method: Data points represent 3 biological replicates with 3 technical replicates. Mean±SD are shown.
# P. aeruginosa PA14 overnight cultures were diluted 1:100 and grown to exponential phase (OD600=0.4-0.6). Cultures were diluted 1:10 and treated with antibiotic. At each time point, 150 μL of culture was removed, serial diluted 1:10 six times, and plated onto LB Agar plates. Plates were grown overnight at 37° C. after which visible colonies were counted. CFU/mL was reported from dilutions in which ˜10-100 single colonies were visible.
# [2] = tested on: A. baumannii BAA-125; experiment: MIC in LB Broth; format: cell-based; details: Acinetobacter baumannii, BAA125, 16 hours at 37° C. in LB Broth, OD600
# Method: (§1) The minimum inhibitory concentration is defined as the lowest concentration of antibiotic at which no visible growth was detected after 16 hours at 37° C. Overnight cultures were diluted 1:150 in LB Broth and added to a 96-well plate. Antibiotics were serially diluted 1:2 and added to columns of the 96-well plate and grown at 37° C. with continuous shaking. Cell growth was measured by optical density (OD600). MIC assays were performed in either BioTek Synergy HT (Winooski, VT) or Tecan InfiniteM200 Pro (Männedorf, CH) microplate readers.
# [3] = tested on: P. aeruginosa PA01; experiment: MIC in LB Broth; format: cell-based; details: Pseudomonas aeruginosa, 16 hours at 37° C. in LB Broth, OD600
# Method: as §1
# [4] = tested on: P. aeruginosa ATTC 27853; experiment: MIC in LB Broth; format: cell-based; details: Pseudomonas aeruginosa, ATTC27853, 16 hours at 37° C. in LB Broth, OD600
# Method: as §1
# [5] = tested on: E. cloacae ATCC BAA-1143; experiment: MIC in LB Broth; format: cell-based; details: Enterobacter cloacae, ATCCBAA1143, 16 hours at 37° C. in LB Broth, OD600
# Method: as §1
# [6] = tested on: P. aeruginosa PA14; experiment: MIC in LB Broth; format: cell-based; details: Pseudomonas aeruginosa
# Method: as §1
# [7] = tested on: E. coli NCM-3722; experiment: MIC in LB Broth; format: cell-based; details: Escherichia coli, NCM3722, 16 hours at 37° C. in LB Broth, OD600
# Method: as §1
# [8] = tested on: E. coli lptD4213; experiment: MIC in LB Broth; format: cell-based; details: Escherichia coli, LPTD4213, 16 h
# Method: as §1
# [9] = Maximum tolerated dose (MTD); format: in vivo, mouse; details: administered subcutaneously (SC), CD-1 mice
# Method: P. aeruginosa thigh infection model and MTD studies: Care and handling of Female 5-6-week-old CD-1 conformed to institutional animal care and use policies as carried out at University of North Texas Health Science Center (Fort Worth, Texas). Rodents were fed either base chow or base diet supplemented with 1.8 g/kg thymidine (Sigma T9250) obtained from Envigo starting two days before infection.
# MTD was determined through administration of compounds at increasing dosage until the maximum dose before adverse reactions were observed. Doses were increased in a stepwise manner from 1 mg/kg to 5, 10, 25, 50 mg/kg. […] MTD was evaluated by the University of North Texas Health Science Center (Fort Worth, Texas).
# [10] = tested on: WI-38 cells; experiment: Mammalian cell cytotoxicity (CyQUANT); format: cell-based; details: 72 hours
# Method: FIG. 5D provides IC50 of fluorofolin against in vitro mammalian cell lines relative to the IC50 of IRS-16. HLF: human lung fibroblast, HK-2: human kidney epithelial, PBMC: peripheral blood mononuclear cell, WI-38: Embryonic lung tissue.
# After 24 hours, DMSO or compounds were added in 3-fold dilutions and incubated for 72 hours. For PBMC, CellTiter-Glo Reagent was added in equal volume and incubated for 30 min after which luminescence was read. For other cell types, CyQUANT Detection Reagent was added in equal volume and incubated for 1 hour after which fluorescence was read with standard green filter set (508/527 nm ex). Cell toxicity was evaluated by Pharmaron, Inc. (Beijing, […]).
# [11] = tested on: folate metabolism in P. aeruginosa; experiment: Metabolomics (LC-MS metabolite abundance); format: cell-based; details: PA14, 2×MIC for 15 min, vs solvent control; P=0.0186 and 0.0196
# Method: Metabolite abundance was quantified in comparison to the solvent only control. Data represents mean±SD for 3 biological replicates. P values were calculated using unpaired t-test using Prism 9 (P values≤0.05)
# To test the ability of fluorofolin to inhibit P. aeruginosa DHFR in vivo, metabolomics were performed. As a positive control for DHFR inhibition, we turned to TMP.
# Overnight P. aeruginosa PA14 cultures were diluted 1:150 in Gutnick Minimal Media and grown to early-mid exponential phase (OD600=0.4-0.6).
# LC-MS analysis of metabolites was performed on Orbitrap Exploris 240 mass spectrometer coupled with hydrophilic interaction liquid chromatography (HILIC)^64. […] Flow rate was 0.15 mL/min, and column temperature was set at 25° C. […] The orbitrap resolution was 180,000 at m/z of 200. The maximum injection time was 200 ms, and the automatic gain control (AGC) target was 1000%. Raw mass spectrometry data were converted to mzXML format by MSConvert (ProteoWizard). Pick-peaking was done on El Maven (v0.8.0, Elucidata).
# [12] = Serum binding (plasma protein binding, dialysis); format: in vitro ADME; details: mouse plasma
# Method: An initial t=0 sample was collected. fluorofolin was incubated with plasma for 6 hours after which dialysis was performed. After dialysis, supernatant was collected, and the amount of fluorofolin was determined by LC-MS/MS to determine the % Unbound of fluorofolin. Serum binding parameters were determined as follows: • 1. % Bound=100%−% Unbound • 2. Log K=Log (% Bound/100−% Bound) • 3. % Remaining=Area-ratio6hr/Area-ratio0hr×100% • 4. % Recovery was determined as (Area-ratiobuffer-chamber+Area-ratioplasma-chamber)/(Area-ratioTotal sample)×100 Serum binding analysis was performed by Pharmaron, Inc. (Beijing, ROC). C. elegans Maintenance and Toxicity Assay
# [13] = tested on: PA14 mutants with disruptions in mexA, mexB and oprM; experiment: MIC against MexAB-OprM transposon mutants; format: cell-based, P. aeruginosa; details: oprM transposon mutants vs wildtype PA14
# Method: FIG. 1I is the minimum inhibitory concentration of fluorofolin or trimethoprim against transposon mutants for each component of the MexAB-OprM efflux pump. MIC against wildtype PA14 was calculated to control for each drug stock. MIC values are representative of two independent replicates.
# P. aeruginosa PA14 transposon mutants were generated by the Ausubel Lab (http://ausubellab.mgh.harvard.edu/cgi-bin/pa14/home.cgi). The MICs of fluorofolin and TMP against strains with disrupted MexA, MexB, and OprM were determined as above and compared to the parental strain. As transposon mutants in MexB were represented twice in this collection, the MIC was confirmed across both mutant strains.
smiles,measurement,setting,value
Nc1nc(N)c2c(ccc3c2ccn3Cc2ccnc(F)c2)n1 [fluorofolin],type of antibacterial activity,[1],bacteriostatic
same,MIC,[2],31.2 µg/mL
same,MIC,[3],6.25 µg/mL
same,MIC,[4],25 µg/mL
same,MIC,[5],12.5 µg/mL
same,MIC,"[6]; P. aeruginosa PA14, compound alone",3.1 µg/mL
same,MIC,"[6]; P. aeruginosa PA14, 16 hours at 37° C. in LB Broth, OD600",3.12 µg/mL
same,MIC,[7],0.312 µg/mL
same,MIC,[8],0.02 µg/mL
same,maximum tolerated dose,[9],25 mg/kg
same,increase in IC50 compared to IRS-16,[10],58.5 fold
same,abundance of AICAR and dUMP,[11],significant upregulation
same,"recovery at 6 h, 1 μM",[12],91.9%
same,change of MIC in efflux pump mutants,[13],did not decrease their MIC against fluorofolin to the same extent
